According to patent publication US20110245349A1, “BENZYL ALCOHOL MIXTURE FOR TREATING PREMATURE EJACULATION” (PANAXIA LTD., priority 2010, published 2011):

Test system: sexual desensitization of male subjects
Test: Desensitization effect scored by male subjects after rubbing the mixture on the genital organs and manual stimulation
Type: in vivo, human
Details: for Mean desensitization effect: scale of 1-10, mean of 5 subjects
Procedure: In a trial which was conducted on 5 healthy, sexually active male subjects the following formulations were tested: Benzyl alcohol in concentrations: 1%, 3%, 5%, 7% and 10%. Each of the concentrations was tested in the following vehicles: aqueous alcoholic solution, gel, ointment and cream. For each formulation the participants were requested to rub the mixture on their genital organs until complete skin absorption and then wait for the full effect for 5 minutes. After the waiting period the participants were requested to perform manual stimulation of their genital organs and describe the desensitization effect of the mixture in a scale of 1-10.
In another trial, menthol was added to the mixture and the same procedure that was described earlier was applied to assess the effect of menthol addition.

Question: Which “Desensitization effect (in words)” value (each of the benzyl alcohol concentrations tested (1-10%)) does the source give for OCc1ccccc1 [Benzyl alcohol] here?
Answer: effective as a desensitizer

Question: And the “Optimal concentration of benzyl alcohol” value (found in the applicant's tests)?
Answer: 5%

Question: What about the Mean desensitization effect (aqueous alcoholic solution (1:1 water ethanol mixture), benzyl alcohol 1%, 5 min wait) of the same compound?
Answer: 3.2

Question: What about the Mean desensitization effect (aqueous alcoholic solution (1:1 water ethanol mixture), benzyl alcohol 3%) of the same compound?
Answer: 4.6

Question: What about the Mean desensitization effect (aqueous alcoholic solution (1:1 water ethanol mixture), benzyl alcohol 5%) of the same compound?
Answer: 6.2

Question: What about the Mean desensitization effect (aqueous alcoholic solution (1:1 water ethanol mixture), benzyl alcohol 7%) of the same compound?
Answer: 7.6

Question: And the Mean desensitization effect (aqueous alcoholic solution (1:1 water ethanol mixture), benzyl alcohol 10%)?
Answer: 8.0

Question: What about the Mean desensitization effect (aqueous gel (1% hydroxyethylcellulose gel), benzyl alcohol 1%) of the same compound?
Answer: 2.8

Question: What about the Mean desensitization effect (aqueous gel (1% hydroxyethylcellulose gel), benzyl alcohol 3%) of the same compound?
Answer: 4.2

Question: What about the Mean desensitization effect (aqueous gel (1% hydroxyethylcellulose gel), benzyl alcohol 5%) of the same compound?
Answer: 5.6

Question: What about the Mean desensitization effect (aqueous gel (1% hydroxyethylcellulose gel), benzyl alcohol 7%) of the same compound?
Answer: 6.6

Question: And the Mean desensitization effect (aqueous gel (1% hydroxyethylcellulose gel), benzyl alcohol 10%)?
Answer: 7.4

Question: What about the Mean desensitization effect (cream, benzyl alcohol 1%) of the same compound?
Answer: 2.4

Question: What about the Mean desensitization effect (cream, benzyl alcohol 3%) of the same compound?
Answer: 3.6

Question: And the Mean desensitization effect (cream, benzyl alcohol 5%)?
Answer: 5.2

Question: What about the Mean desensitization effect (cream, benzyl alcohol 7%) of the same compound?
Answer: 6.2

Question: And the Mean desensitization effect (cream, benzyl alcohol 10%)?
Answer: 6.8

Question: And the Mean desensitization effect (ointment, benzyl alcohol 1%)?
Answer: 2.0

Question: What about the Mean desensitization effect (ointment, benzyl alcohol 3%) of the same compound?
Answer: 3.2

Question: What about the Mean desensitization effect (ointment, benzyl alcohol 5%) of the same compound?
Answer: 4.8

Question: And the Mean desensitization effect (ointment, benzyl alcohol 7%)?
Answer: 5.8

Question: And the Mean desensitization effect (ointment, benzyl alcohol 10%)?
Answer: 6.2

Question: With CC1CCC(C(C)C)C(O)C1 (stereo not drawn) [menthol, Menthol] as the compound, how does the “Desensitization effect (in words)” value (menthol combined with benzyl alcohol gel, compared with the same concentration of benzyl alcohol alone) read?
Answer: dramatic effect

Question: And the “Desensitization effect (in words)” value (sole use of menthol in 1% Hydroxyethylcellulose gel)?
Answer: did not create a substantial desensitization effect
